Experimental data published in patent US20250213601A1 (priority 2022, published 2025).
“And” between values parts separate entries of the source, which are not always exact repeats. Equal entries are not always repeated.

Legend:
Dengue virus (NGC) = conditions: cited from earlier work
[1] = Ivermectin concentration in the blood plasma of cattle after oral administration; assay type: in vivo; conditions: oral 600 μg/kg (per pure IVM)
Procedure: Cattle were divided into 2 groups of 1 animals each. Free Ivermectin (IVM) and compound of FORMULA I were orally administered to starving cattle. Blood samples were withdrawn from the jugular vein at appropriate time intervals after administration (0, 4, 20 h).
Fluorescence detection was set at an excitation and emission wavelength of 365 and 475 nm, respectively. The mobile phase consisted of acetonitrile, methanol and distilled water (50:45:5, v/v/v), running through the column at a flow rate of 1.5 ml/minute. The chromatographic analysis was operated at 25° C. Sample preparation (100 μl plasma) was done by a single stepprotein precipitation with acetonitrile, followed by derivatization with 100 μl of N-methylimidazole solution in acetonitrile (1:1, v/v) and 150 μl of trifluoroacetic anhydrous solution in acetonitrile (1:2, v/v). Calibration curve over the concentration range of 20-8,000 ng/ml plasma was linear with correlation coefficient better than 0.995.
All the blood samples were centrifuged at 3000 rpm for 15 min to obtain […]. Cattle plasma samples (100 μL each) were placed in 1.5 mL Eppendorf tubes, and then the samples underwent protein precipitation. The samples were vortexed for 1 min and centrifuged at 13,400 rpm for 10 min 20 μL of the supernatant was injected into the HPLC.

West Nile virus (NY99) = conditions: cited from earlier work
Syrian hamsters = test: Oral toxicity of solid dispersion; assay type: in vivo; conditions: per pure ivermectin, FORMULA I compound per Example 1 No 2 (apple pectin 1:5)
West Nile virus (MRM61C) = conditions: cited from earlier work
[2] = tested on: Zika virus (Asian/Cook Islands); conditions: cited from earlier work
SARS-CoV-2 = conditions: in vitro, inhibition of replication; cited from earlier work
Dengue virus (EDEN-3) = conditions: cited from earlier work
Pseudorabies virus = conditions: estimated; read-out: est. EC50; cited from earlier work
[3] = tested on: Hendra (Hendra virus/Australia/Horse); conditions: estimated; read-out: est. EC50; cited from earlier work
Adenovirus (HAdV-C5) = conditions: cited from earlier work
[4] = tested on: Influenza VLPs (avian influenza A); conditions: 10 μM; cited from earlier work
Caco-2 cell line = test: Permeability through a monolayer of Caco-2 cells; conditions: bottom of Transwell well, 3 μM (per pure IVM) in HBSS on top
[5] = standard tablet form, for 5 days; cited from earlier work
Dengue virus (EDEN-2) = conditions: cited from earlier work
Dengue virus (EDEN-4) = conditions: cited from earlier work

CCC(C)C1OC2(CCC1C)CC1CC(CC=C(C)C(OC3CC(OC)C(OC4CC(OC)C(O)C(C)O4)C(C)O3)C(C)C=CC=C3COC4C(O)C(C)=CC(C(=O)O1)C34O)O2 (centres unmarked) [ivermectin, Ivermectin]
Inhibition (Dengue virus (NGC); 50 μM): total inhibition
EC50 (Dengue virus (NGC)): 400 nM and 600 nM
C1, 0 h (ivermectin concentration in plasma) ([1]; 0 h, FORMULA I compound per Example 1 No 1 (polyvinylpyrrolidone 1:10), IVM = milled free ivermectin): 0 ± 0.15 ng/mL
C2, 4 h (ivermectin concentration in plasma) ([1]; 4 h, FORMULA I compound per Example 1 No 1): 307.3 ± 46.1 ng/mL
C3, 20 h (ivermectin concentration in plasma) ([1]; 20 h, FORMULA I compound per Example 1 No 1): 104.4 ± 15.6 ng/mL
Cmax ([1]; FORMULA I compound per Example 1 No 1): 350 ± 50 nM
EC50 (West Nile virus (NY99)): 4000 nM
LD50 (Syrian hamsters): 62 mg/kg
EC50 (West Nile virus (MRM61C)): 1000 nM and 500 nM
EC50 [2]: 1300 nM and 1600 nM
EC50 (SARS-CoV-2): 2400 nM and 2200 nM and 2800 nM
EC90 (SARS-CoV-2): 5000 nM
EC50 (Dengue virus (EDEN-3)): 1700 nM
EC50 (Pseudorabies virus): ~800 nM
EC50 [3]: ~2000 nM
EC50 (Adenovirus (HAdV-C5)): 2500 nM
Inhibition [4]: 10 μM total inhibition
Concentrartion of IVM (Caco-2 cell line; 20 min, FORMULA I compound per Example 1 No 2 (apple pectin 1:5)): 50 ng/mL
Concentrartion of IVM (Caco-2 cell line; 40 min, FORMULA I compound per Example 1 No 2): 90 ng/mL
Concentrartion of IVM (Caco-2 cell line; 60 min, FORMULA I compound per Example 1 No 2): 150 ng/mL
Concentrartion of IVM (Caco-2 cell line; 80 min, FORMULA I compound per Example 1 No 2): 190 ng/mL
Concentrartion of IVM (Caco-2 cell line; 100 min, FORMULA I compound per Example 1 No 2): 210 ng/mL
Concentrartion of IVM (Caco-2 cell line; 120 min, FORMULA I compound per Example 1 No 2): 250 ng/mL
lung Cmax [5]: 400 to 900 nM
EC50 (Dengue virus (EDEN-2)): 2100 nM and 1700 nM
EC50 (Dengue virus (EDEN-4)): 1900 nM
